pIC50: −log10 of the molar value.
What was measured:
[1] = tested on: endonuclease from detergent disrupted viral particles; set-up: method as in PMID 7695269; details: cited from earlier work
[2] = tested on: influenza virus transcription; details: cited from earlier work
[3] = biological target: influenza A polymerase acidic protein (PA), full length, N-terminal 3x FLAG tag (influenza A virus H1N1 strain A/PR/8) (UniProt P03433); experiment: AUC

In the case of `O=C(O)C(=O)CC(=O)c1ccc(-c2ccccc2)cc1` [Compound A, 4-([1,1'-biphenyl]-4-yl)-2,4-dioxobutanoic acid], the pIC50 [1] is given as 5.43.

For `O=C(O)C(=O)CC(=O)C1(Cc2ccc(Cl)cc2)CCN(Cc2ccc(Cl)cc2)CC1` [Compound B, 4-(1,4-bis(4-chlorobenzyl)piperidin-4-yl)-2,4-dioxobutanoic acid], the pIC50 [2] is listed as 5.96.

“influenza A polymerase acidic protein (PA), full length, N-terminal 3x FLAG tag (from UniProt P03433 1-716) (natural protein)” gave a percent dimer [3] of 10%.

From article PMC5557545 (PLoS ONE, 2017)
